The results in this text go back to ChEMBL document CHEMBL4330083, “Synthesis and evaluation of isoprenylation-resveratrol dimer derivatives against Alzheimer's disease” (Eur J Med Chem, 2019).

Common to all, as to format: functional
Assay [1] deals with PC-12. Put plainly: Neuroprotection against H2O2-induced oxidative damage in rat PC12 cells assessed as necrotic cells at 10 uM after 24 hrs in presence of H2O2 by annexin V-FITC/propidium iodide staining based flow cytometric analysis (reference value: 0.4%). On the technique in general: A flow cytometer gives signals particle by particle.
For assay [2], the system named is PC-12. Briefly: Neuroprotection against H2O2-induced oxidative damage in rat PC12 cells assessed as early apoptotic cells at 5 uM after 24 hrs in presence of H2O2 by annexin V-FITC/propidium iodide staining based flow cytometric analysis (reference value: 29.3%).
For assay [3], the system named is PC-12. Briefly: Neuroprotection against H2O2-induced oxidative damage in rat PC12 cells assessed as viable cells at 2.5 uM after 24 hrs in presence of H2O2 by annexin V-FITC/propidium iodide staining based flow cytometric analysis (reference value: 64.1%). The following applies: PC-12, 24 h, read-out: Activity.
Assay [4] relates to PC-12. Put plainly: Neuroprotection against H2O2-induced oxidative damage in rat PC12 cells assessed as reduction in ROS production by measuring mean fluorescence intensity at 5 uM preincubated for 4 hrs followed by H2O2 addition measured after 24 hrs by DCFH-DA staining-based flow cytometric analysis (reference value: 102489).
A short description of assay [5]: Neuroprotection against LPS-induced inflammation in human BV2 cells assessed as reduction in ROS production by measuring mean fluorescence intensity at 10 uM after 18 hrs by DCFH-DA staining-based flow cytometric analysis (reference value: 56792).
Assay [6] can be described thus: Neuroprotection against H2O2-induced inflammation in […] cells assessed as reduction in ROS production by measuring mean fluorescence intensity at 10 uM after 18 hrs by DCFH-DA staining-based flow cytometric analysis (reference value: 20004).
For assay [7], the system named is PC-12. Put plainly: Neuroprotection against H2O2-induced oxidative damage in rat PC12 cells assessed as viable cells at 10 uM after 24 hrs in presence of H2O2 by annexin V-FITC/propidium iodide staining based flow cytometric analysis (reference value: 64.1%). As to conditions: PC-12, 24 h, read-out: Activity.
Assay [8] relates to PC-12. Briefly: Neuroprotection against H2O2-induced oxidative damage in rat PC12 cells assessed as intracellular Ca2+ level by measuring mean fluorescence intensity at 2.5 uM after 24 hrs in presence of H2O2 by Fluo-3/AM staining based flow cytometric analysis (reference value: 51697).
Assay [9] concerns PC-12. Put plainly: Neuroprotection against H2O2-induced oxidative damage in rat PC12 cells assessed as necrotic cells at 2.5 uM after 24 hrs in presence of H2O2 by annexin V-FITC/propidium iodide staining based flow cytometric analysis (reference value: 4.5%).
Assay [10] relates to PC-12. Put plainly: Neuroprotection against H2O2-induced oxidative damage in rat PC12 cells assessed as mitochondrial membrane potential at 5 uM after 24 hrs in presence of H2O2 by Jc-1 staining based flow cytometric analysis (reference value: 16.35 +/- 3.19%).
Assay [11] deals with PC-12. Put plainly: Neuroprotection against H2O2-induced oxidative damage in rat PC12 cells assessed as late apoptotic cells at 2.5 uM after 24 hrs in presence of H2O2 by annexin V-FITC/propidium iodide staining based flow cytometric analysis (reference value: 29.8%).
The subject of assay [12] is PC-12. Put plainly: Neuroprotection against H2O2-induced oxidative damage in rat PC12 cells assessed as intracellular Ca2+ level by measuring mean fluorescence intensity at 10 uM after 24 hrs in presence of H2O2 by Fluo-3/AM staining based flow cytometric analysis (reference value: 43156).
In assay [13] the test system is PC-12. Briefly: Neuroprotection against H2O2-induced oxidative damage in rat PC12 cells assessed as intracellular Ca2+ level by measuring mean fluorescence intensity at 2.5 uM after 24 hrs in presence of H2O2 by Fluo-3/AM staining based flow cytometric analysis (reference value: 43156).
In assay [14] the test system is PC-12. Briefly: Neuroprotection against H2O2-induced oxidative damage in rat PC12 cells assessed as reduction in ROS production by measuring mean fluorescence intensity at 10 uM preincubated for 4 hrs followed by H2O2 addition measured after 24 hrs by DCFH-DA staining-based flow cytometric analysis (reference value: 82616).
In assay [15] the test system is PC-12. Briefly: Neuroprotection against H2O2-induced oxidative damage in rat PC12 cells assessed as early apoptotic cells at 5 uM after 24 hrs in presence of H2O2 by annexin V-FITC/propidium iodide staining based flow cytometric analysis (reference value: 2.1%).
Assay [16] has as its system PC-12. Put plainly: Neuroprotection against H2O2-induced oxidative damage in rat PC12 cells assessed as late apoptotic cells at 10 uM after 24 hrs in presence of H2O2 by annexin V-FITC/propidium iodide staining based flow cytometric analysis (reference value: 29.8%).
A short description of assay [17]: Neuroprotection against LPS-induced inflammation in […] cells assessed as reduction in ROS production by measuring mean fluorescence intensity at 10 uM after 18 hrs by DCFH-DA staining-based flow cytometric analysis (reference value: 70385).

Consider `CC(C)=CCc1c(O)cc(/C=C/c2ccc3c(c2)[C@H](c2cc(O)c(CC=C(C)C)c(O)c2)[C@@H](c2ccc(O)cc2)O3)cc1O`, for which the Activity in the assay on PC-12 [1] came out at 0.7%; in the assay on PC-12 [2], 13.1%. In the assay with PC-12 [3], the viability at 2.5 µM was 75.9%. Moreover, the Flu intensity is listed as 85417 in the assay with PC-12 [4], 24076 in assay [5], 8220 in [6] and 40059 with PC-12 [8]. The viability at 10 µM in the assay on PC-12 [7] was determined as 88.4%.

`CC(C)=CCc1c(O)cc(/C=C/c2ccc3c(c2)[C@H](c2cc(O)c4c(c2)OC(C)(C)CC4)[C@@H](c2ccc(O)cc2)O3)cc1O`: the Activity in the assay with PC-12 [9] came out at 4.8%; in the assay with PC-12 [10], 68.51%; in the assay with PC-12 [11], 25.1%; with PC-12 [15], 1.9%; in the assay on PC-12 [16] it was 4.8%. Further, the Flu intensity in the assay on PC-12 [12] is listed as 35826; in the assay on PC-12 [13] it was 40869; with PC-12 [14], 56274; in [17] it was 43811.
